In PMC11097163 (ACS Omega, 2024):
In brackets after ≈: the same amount, converted by molar mass.

Legend:
P-gp [1] = assay: P-gp induction, intracellular accumulation of Rh123 in LS180 cells; type: cell-based
[2] = standards: high / moderate / low aqueous solubility; cited from earlier work
P-gp [3] = target: P-gp (Homo sapiens, UniProt P08183); assay: P-gp inhibition, intracellular accumulation of Rh123 in LS180 cells; type: cell-based
CYP2D6 [4] = assay: Western blot of liver CYP2D6 protein expression; type: in vivo; settings: rat liver, crocetin with donepezil compared to only donepezil
[5] = Pharmacokinetics and oral bioavailability after oral and IV administration; type: in vivo; settings: rat
GI permeability, PAMPA = type: in vitro ADME; settings: pH 7.4
CYP2D6 [6] = target: CYP2D6 (Homo sapiens, UniProt P10635); assay: CYP inhibition in HLM, CYP2D6; settings: IC50 (μM), dextromethorphan O-demethylation
CYP2D6 (Homo sapiens, UniProt P10635), sequence (P10635 whole entry): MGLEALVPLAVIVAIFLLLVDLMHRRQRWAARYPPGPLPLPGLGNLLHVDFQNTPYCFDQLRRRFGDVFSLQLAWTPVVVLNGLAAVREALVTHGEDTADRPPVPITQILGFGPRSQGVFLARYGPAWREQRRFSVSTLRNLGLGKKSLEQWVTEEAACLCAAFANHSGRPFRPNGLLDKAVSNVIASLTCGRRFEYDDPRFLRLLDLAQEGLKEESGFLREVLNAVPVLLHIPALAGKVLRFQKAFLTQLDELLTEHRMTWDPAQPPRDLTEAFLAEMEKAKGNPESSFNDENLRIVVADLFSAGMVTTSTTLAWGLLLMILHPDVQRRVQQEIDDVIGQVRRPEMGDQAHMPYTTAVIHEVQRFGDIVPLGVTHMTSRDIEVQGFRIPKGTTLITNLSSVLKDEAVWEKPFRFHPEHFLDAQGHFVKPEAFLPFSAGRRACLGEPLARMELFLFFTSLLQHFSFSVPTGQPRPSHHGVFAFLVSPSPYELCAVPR

[7] = Intrabrain distribution after IV administration; type: in vivo; settings: rat, IV 10 mg/kg, 5 min after dosing
[8] = Equilibrium solubility in biorelevant media, shake-flask method; type: physicochemical; settings: water, 37 °C, thermodynamic from solid
[9] = systemic circulation after oral administration of crocin; cited from earlier work
[10] = Metabolic stability in liver microsomes; type: in vitro ADME, human, monkey, dog, rat, mouse; settings: MLM, RLM, DLM, MkLM, HLM; 1 mg/mL protein, 5 µM, 30 min
[11] = Plasma stability in rat plasma; type: in vitro ADME; settings: 5 µM, 2 h, 37°C
[12] = Organ distribution after IV administration; type: in vivo; settings: rat, IV 10 mg/kg, 5 min after dosing
pKa, UV-metric method = type: physicochemical; settings: Britton-Robinson buffer, pH 1.81
[13] = Chemical stability in SGF and SIF; type: physicochemical; settings: 37 °C, 10 µM
Caco-2 barrier = settings: ref 50 (Lautenschlager et al.); cited from earlier work
CYP2C8 = target: T1, CYP2C8 (Homo sapiens, UniProt P10632); assay: CYP inhibition in HLM, CYP2C8; type: biochemical; settings: IC50 (μM), amodiaquine N-deethylation
T1 sequence (P10632 1-490): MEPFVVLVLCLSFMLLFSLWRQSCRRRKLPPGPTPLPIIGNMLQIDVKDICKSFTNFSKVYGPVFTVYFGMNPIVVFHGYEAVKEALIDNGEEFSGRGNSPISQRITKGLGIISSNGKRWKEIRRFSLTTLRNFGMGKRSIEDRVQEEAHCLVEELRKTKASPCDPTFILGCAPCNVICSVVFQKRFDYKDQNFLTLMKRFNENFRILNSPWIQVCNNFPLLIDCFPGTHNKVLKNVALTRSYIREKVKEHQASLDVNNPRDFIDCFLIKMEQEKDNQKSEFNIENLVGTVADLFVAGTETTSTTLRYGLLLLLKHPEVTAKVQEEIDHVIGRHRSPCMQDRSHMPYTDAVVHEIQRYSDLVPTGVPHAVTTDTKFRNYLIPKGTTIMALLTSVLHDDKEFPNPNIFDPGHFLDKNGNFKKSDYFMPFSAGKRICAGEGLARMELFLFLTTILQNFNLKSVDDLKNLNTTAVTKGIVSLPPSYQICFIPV

CYP3A4 = assay: Western blot of liver CYP3A4 protein expression; type: in vivo; settings: rat liver, crocetin with galantamine compared to only galantamine
[14] = Plasma protein binding, rapid equilibrium dialysis; type: in vitro ADME; settings: rat, pH 7.4
[15] = RBC partitioning in rat blood and plasma; type: in vitro ADME; settings: fresh whole blood and reference plasma
[16] = female, Wistar, plasma, other: oral and intravenous

P-gp (Homo sapiens, UniProt P08183), sequence (P08183 whole entry): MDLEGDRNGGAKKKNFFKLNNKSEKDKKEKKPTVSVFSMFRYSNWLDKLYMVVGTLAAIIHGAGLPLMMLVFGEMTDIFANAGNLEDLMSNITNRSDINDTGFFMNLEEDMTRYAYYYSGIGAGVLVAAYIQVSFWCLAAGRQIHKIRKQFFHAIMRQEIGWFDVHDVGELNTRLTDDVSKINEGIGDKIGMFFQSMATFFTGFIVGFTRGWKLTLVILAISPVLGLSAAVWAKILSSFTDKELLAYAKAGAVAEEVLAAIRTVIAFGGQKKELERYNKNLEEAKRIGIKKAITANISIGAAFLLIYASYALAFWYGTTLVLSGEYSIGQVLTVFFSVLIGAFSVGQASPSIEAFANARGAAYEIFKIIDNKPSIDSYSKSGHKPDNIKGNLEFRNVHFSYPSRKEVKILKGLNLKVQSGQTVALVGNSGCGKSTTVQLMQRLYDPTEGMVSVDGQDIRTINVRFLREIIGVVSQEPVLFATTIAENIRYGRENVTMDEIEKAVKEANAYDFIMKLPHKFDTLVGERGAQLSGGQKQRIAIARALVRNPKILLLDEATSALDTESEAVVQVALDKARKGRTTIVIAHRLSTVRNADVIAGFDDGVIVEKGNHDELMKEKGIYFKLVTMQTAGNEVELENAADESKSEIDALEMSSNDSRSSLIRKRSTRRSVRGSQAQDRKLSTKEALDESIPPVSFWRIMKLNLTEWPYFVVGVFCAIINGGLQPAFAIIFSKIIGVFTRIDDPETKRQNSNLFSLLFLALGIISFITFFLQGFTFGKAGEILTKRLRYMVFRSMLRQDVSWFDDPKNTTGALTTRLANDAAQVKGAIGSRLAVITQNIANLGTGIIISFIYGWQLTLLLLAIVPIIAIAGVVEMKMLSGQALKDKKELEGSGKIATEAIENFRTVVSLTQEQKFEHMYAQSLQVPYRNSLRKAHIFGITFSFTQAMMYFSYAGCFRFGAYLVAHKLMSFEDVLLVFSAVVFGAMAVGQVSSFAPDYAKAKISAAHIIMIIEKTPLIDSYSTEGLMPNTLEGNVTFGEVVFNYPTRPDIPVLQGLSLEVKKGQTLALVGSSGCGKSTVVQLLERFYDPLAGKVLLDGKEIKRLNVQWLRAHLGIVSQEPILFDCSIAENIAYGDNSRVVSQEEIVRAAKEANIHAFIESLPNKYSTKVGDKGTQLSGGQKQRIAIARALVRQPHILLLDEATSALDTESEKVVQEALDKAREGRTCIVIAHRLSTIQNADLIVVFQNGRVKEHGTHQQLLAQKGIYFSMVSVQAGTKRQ

Which “P-gp induction (decrease in intracellular accumulation of Rh123)” value (P-gp [1]; standard, 10 µM) does the source give for `CO[C@H]1/C=C/O[C@@]2(C)Oc3c(C)c(O)c4c(O)c(c(/C=N/N5CCN(C)CC5)c(O)c4c3C2=O)NC(=O)/C(C)=C\C=C\[C@H](C)[C@H](O)[C@@H](C)[C@@H](O)[C@@H](C)[C@H](OC(C)=O)[C@@H]1C` [rifampicin, reference compound] here?
Its value is “significant induction of P-gp”.

For `CCCC1O[C@@H]2C[C@H]3[C@@H]4CCC5=CC(=O)C=C[C@]5(C)[C@H]4[C@@H](O)C[C@]3(C)[C@]2(C(=O)CO)O1` (stereo partly drawn) [budesonide], which “aqueous solubility (category of the standard)” value [2] is on record?
Its value is 10 to 100 µg/mL.

Which “aqueous solubility (category of the standard)” value [2] does the source give for `COc1ccc(CCN2CCC(Nc3nc4ccccc4n3Cc3ccc(F)cc3)CC2)cc1` [astemizole] here?
Its value is < 10 µg/mL.

For `O[C@@H](COc1cccc2ncccc12)CN1CCN([C@@H]2c3ccccc3[C@@H]3[C@H](c4ccccc42)C3(F)F)CC1` [zosuquidar, reference compound], which “P-gp inhibition (increase in intracellular accumulation of Rh123)” value (P-gp [3]; standard, 10 µM) is on record?
Its value is “significant inhibition of P-gp”.

With `CC(/C=C/C=C(\C)C(=O)O)=C\C=C\C=C(C)\C=C\C=C(/C)C(=O)O` [crocetin] as the molecule, how does the “CYP2D6 protein expression (down-regulation)” value (CYP2D6 [4]) read?
The value was 0.73 fold.

And the clearance [5, 16]?
Its clearance is ≤ 16.7 mL/min/kg.

And the half-life [5, 16]?
Its half-life is > 120 min.

What about the maximum plasma concentration ([5]; oral 20 mg/kg) of the same molecule?
The maximum plasma concentration was 23 µM.

And the Papp at 5 h, 5 μM (GI permeability, PAMPA)?
Its Papp at 5 h, 5 μM is 3.89 ×10⁻⁶ cm/s.

And the P-gp inhibitory activity (P-gp [3]; Rh123, 1 to 50 μM)?
The P-gp inhibitory activity was “no marked P-gp inhibitory activity”.

And the IC50 (CYP2D6 [6])?
Its IC50 is 20.4 µM.

What about the “order of concentrations in brain parts” value [7] of the same molecule?
The value was “cortex > cerebellum > hippocampus”.

And the solubility at 1 h [8]?
Its solubility at 1 h is 0.6 µg/mL (≈ 1.83 µM).

What about the “exposure of crocetin relative to crocin” value [9] of the same molecule?
Its value is 56–81 fold.

And the “remaining intact in liver microsomes” value [10]?
Its value is > 83%.

What about the degradation in plasma [11] of the same molecule?
The degradation in plasma was < 5%.

What about the “order of concentrations in organs” value [12] of the same molecule?
Its value is “liver > lungs > heart > kidney > spleen > brain”.

What about the pKa (pKa, UV-metric method) of the same molecule?
The pKa was 5.35.

What about the “intact (chemical stability)” value ([13]; SGF (pH 1.2), 2 h) of the same molecule?
Its value is 72%.

And the “intact (chemical stability)” value ([13]; SIF (pH 6.8), 4 h)?
The value was 68%.

And the Papp (Caco-2 barrier)?
Its Papp is 2.6 ± 0.6 × 10^–5 cm/s.

What about the IC50 (CYP2C8) of the same molecule?
Its IC50 is 35.3 µM.

And the “CYP3A4 protein expression (down-regulation)” value (CYP3A4)?
Its value is 0.61 fold.

What about the P-gp induction (P-gp [1]; Rh123, 25–50 μM) of the same molecule?
The P-gp induction was 22–24%.

And the fraction unbound at 4 h, 5 µM [14]?
Its fraction unbound at 4 h, 5 µM is 0.03.

What about the blood plasma ratio at 0 min, 1000 nM [15] of the same molecule?
The blood plasma ratio at 0 min, 1000 nM was 0.36 ± 0.01.

And the blood plasma ratio at 60 min, 1000 nM [15]?
The blood plasma ratio at 60 min, 1000 nM was 0.39 ± 0.04.
